Consider seven molecules from PubChem BioAssay AID1259407 (Chemical Carcinogenesis Research Information System (CCRIS), 2018).

Molecules are shown by their SMILES. The source made the active and inactive calls. No rule for the calls is given here.

For this series, the system named is CCRIS mutagenicity, Ames/micronucleus/aberration tests. The experiment in a line: CCRIS mutagenicity studies.
Where [1] appears, read: Test System: AMES SALMONELLA TYPHIMURIUM, Strain/Indicator: TA98, Metabolic Activation: NONE, Method: STANDARD PLATE.
Where [2] appears, read: Test System: AMES SALMONELLA TYPHIMURIUM, Strain/Indicator: TA100, Metabolic Activation: NONE, Method: STANDARD PLATE.
Setting [3] is: Test System: AMES SALMONELLA TYPHIMURIUM, Strain/Indicator: TA98, Metabolic Activation: NONE, Method: PREINCUBATION
Where [4] appears, read: Test System: AMES SALMONELLA TYPHIMURIUM, Strain/Indicator: TA100, Metabolic Activation: NONE, Method: PREINCUBATION
[5] abbreviates: Test System: AMES SALMONELLA TYPHIMURIUM, Strain/Indicator: TA102, Metabolic Activation: NONE, Method: PREINCUBATION

Regarding `CCC(=O)OCC(=O)[C@@]1(OC(=O)CC)[C@H](C)C[C@H]2[C@H]3[C@H]([C@@H](O)C[C@@]21C)[C@@]1(C)C=CC(=O)C=C1C[C@H]3Cl`, the mutagenic call under setting [1] is “inactive; negative”; the mutagenic call (Test System: AMES SALMONELLA TYPHIMURIUM, Strain/Indicator: TA98, Metabolic Activation: RAT, LIVER, S-9, AROCLOR 1254, Method: STANDARD PLATE) was “inactive; negative”; the mutagenic call under setting [2] is “inactive; negative”; the mutagenic call (Test System: AMES SALMONELLA TYPHIMURIUM, Strain/Indicator: TA100, Metabolic Activation: RAT, LIVER, S-9, AROCLOR 1254, Method: STANDARD PLATE) was “inactive; negative”; the mutagenic call (Test System: AMES SALMONELLA TYPHIMURIUM, Strain/Indicator: TA1535, Metabolic Activation: NONE, Method: STANDARD PLATE) was “inactive; negative”; the mutagenic call (Test System: AMES SALMONELLA TYPHIMURIUM, Strain/Indicator: TA1535, Metabolic Activation: RAT, LIVER, S-9, AROCLOR 1254, Method: STANDARD PLATE) was “inactive; negative”. Further, the mutagenic call is “inactive; negative” (Test System: AMES SALMONELLA TYPHIMURIUM, Strain/Indicator: TA1537, Metabolic Activation: NONE, Method: STANDARD PLATE); “inactive; negative” (Test System: AMES SALMONELLA TYPHIMURIUM, Strain/Indicator: TA1537, Metabolic Activation: RAT, LIVER, S-9, AROCLOR 1254, Method: STANDARD PLATE); “inactive; negative” (Test System: E. COLI, Strain/Indicator: WP2, Metabolic Activation: NONE, Method: STANDARD PLATE); “inactive; negative” (Test System: E. COLI, Strain/Indicator: WP2, Metabolic Activation: RAT, LIVER, S-9, AROCLOR 1254, Method: STANDARD PLATE); “inactive; negative” (Test System: E. COLI, Strain/Indicator: WP2 UVRA, Metabolic Activation: NONE, Method: STANDARD PLATE); “inactive; negative” (Test System: E. COLI, Strain/Indicator: WP2 UVRA, Metabolic Activation: RAT, LIVER, S-9, AROCLOR 1254, Method: STANDARD PLATE).
As for `COc1cc(NCCCCCNC(C)C)c2ncccc2c1`, the mutagenic call was “inactive; negative” (Test System: AMES SALMONELLA TYPHIMURIUM, Strain/Indicator: TA97, Metabolic Activation: NONE, Method: PREINCUBATION); “active; positive” (Test System: AMES SALMONELLA TYPHIMURIUM, Strain/Indicator: TA97, Metabolic Activation: RAT, LIVER, S-9, PHENOBARBITAL AND BETA-NAPHTHOFLAVONE, Method: PREINCUBATION); “inactive; negative” under setting [3]; “inactive; negative” (Test System: AMES SALMONELLA TYPHIMURIUM, Strain/Indicator: TA98, Metabolic Activation: RAT, LIVER, S-9, PHENOBARBITAL AND BETA-NAPHTHOFLAVONE, Method: PREINCUBATION); “inactive; negative” under setting [4]; “inactive; negative” (Test System: AMES SALMONELLA TYPHIMURIUM, Strain/Indicator: TA100, Metabolic Activation: RAT, LIVER, S-9, PHENOBARBITAL AND BETA-NAPHTHOFLAVONE, Method: PREINCUBATION). Further, the mutagenic call by setting is: under setting [5], “inactive; negative”; (Test System: AMES SALMONELLA TYPHIMURIUM, Strain/Indicator: TA102, Metabolic Activation: RAT, LIVER, S-9, PHENOBARBITAL AND BETA-NAPHTHOFLAVONE, Method: PREINCUBATION) “inactive; negative”; (Test System: E.COLI, Strain/Indicator: WP2UVRA/PKM101, Metabolic Activation: NONE, Method: PREINCUBATION) “inactive; negative”; (Test System: E.COLI, Strain/Indicator: WP2UVRA/PKM101, Metabolic Activation: RAT LIVER S-9, PHENOBARBITAL AND 5,6-BENZOFLAVONE, Method: PREINCUBATION) “inactive; negative”.
Take `C/C=C/C`: the mutagenic call reads like this: (Test System: AMES SALMONELLA TYPHIMURIUM, Strain/Indicator: TA98, Metabolic Activation: NONE, Method: GAS EXPOSURE) “inactive; negative”; (Test System: AMES SALMONELLA TYPHIMURIUM, Strain/Indicator: TA98, Metabolic Activation: RAT LIVER S-9, PHENOBARBITAL AND BETA-NAPHTHOFLAVONE (40%), Method: GAS EXPOSURE) “inactive; negative”; (Test System: AMES SALMONELLA TYPHIMURIUM, Strain/Indicator: TA100, Metabolic Activation: NONE, Method: GAS EXPOSURE) “inactive; negative”; (Test System: AMES SALMONELLA TYPHIMURIUM, Strain/Indicator: TA100, Metabolic Activation: RAT LIVER S-9, PHENOBARBITAL AND BETA-NAPHTHOFLAVONE (40%), Method: GAS EXPOSURE) “inactive; negative”; (Test System: AMES SALMONELLA TYPHIMURIUM, Strain/Indicator: TA1535, Metabolic Activation: NONE, Method: GAS EXPOSURE) “inactive; negative”; (Test System: AMES SALMONELLA TYPHIMURIUM, Strain/Indicator: TA1535, Metabolic Activation: RAT LIVER S-9, PHENOBARBITAL AND BETA-NAPHTHOFLAVONE (40%), Method: GAS EXPOSURE) “inactive; negative”. In addition, the mutagenic call is “inactive; negative” (Test System: AMES SALMONELLA TYPHIMURIUM, Strain/Indicator: TA1537, Metabolic Activation: NONE, Method: GAS EXPOSURE); “inactive; negative” (Test System: AMES SALMONELLA TYPHIMURIUM, Strain/Indicator: TA1537, Metabolic Activation: RAT LIVER S-9, PHENOBARBITAL AND BETA-NAPHTHOFLAVONE (40%), Method: GAS EXPOSURE); “inactive; negative” (Test System: E.COLI, Strain/Indicator: WP2UVRA, Metabolic Activation: NONE, Method: GAS EXPOSURE); “inactive; negative” (Test System: E.COLI, Strain/Indicator: WP2UVRA, Metabolic Activation: RAT LIVER S-9, PHENOBARBITAL AND BETA-NAPHTHOFLAVONE (40%), Method: GAS EXPOSURE).
Consider `CC(C)(C)c1ccc(C(=O)ON(OCc2ccccc2)C(=O)c2ccccc2)cc1`, for which the mutagenic call under setting [2] was “active; positive”.
Regarding `CSc1nc2cc(Oc3cccc(Cl)c3Cl)c(Cl)cc2[nH]1`, the mutagenic call (End Point: IN VITRO CHROMOSOMAL ABERRATIONS, Test System: RIVER BUFFALO LYMPHOCYTES, Metabolic Activation: NONE) was “active; positive (structural and ploidy changes)”; the mutagenic call (End Point: IN VITRO MICRONUCLEUS, Test System: RIVER BUFFALO LYMPHOCYTES, Metabolic Activation: NONE) is “active; positive”.
On to `C[C@]12O[C@H]1[C@H]1CCCC[C@@H]1c1ccccc12`, for which the mutagenic call was “inactive; negative” under setting [1] and “inactive; negative” under setting [2].
On to `CC(=O)C(C)O` (configuration not stated), for which the mutagenic call was “inactive; negative” under setting [3]; “inactive; negative” (Test System: AMES SALMONELLA TYPHIMURIUM, Strain/Indicator: TA98, Metabolic Activation: RAT, LIVER, S-9, AROCLOR 1254, Method: PREINCUBATION); “inactive; negative” under setting [4]; “inactive; negative” (Test System: AMES SALMONELLA TYPHIMURIUM, Strain/Indicator: TA100, Metabolic Activation: RAT, LIVER, S-9, AROCLOR 1254, Method: PREINCUBATION); “inactive; negative” under setting [5]; “inactive; negative” (Test System: AMES SALMONELLA TYPHIMURIUM, Strain/Indicator: TA102, Metabolic Activation: RAT, LIVER, S-9, AROCLOR 1254, Method: PREINCUBATION). The mutagenic call is “inactive; negative” (Test System: AMES SALMONELLA TYPHIMURIUM, Strain/Indicator: TA1535, Metabolic Activation: NONE, Method: PREINCUBATION); “inactive; negative” (Test System: AMES SALMONELLA TYPHIMURIUM, Strain/Indicator: TA1537, Metabolic Activation: NONE, Method: PREINCUBATION); “inactive; negative” (Test System: AMES SALMONELLA TYPHIMURIUM, Strain/Indicator: TA1538, Metabolic Activation: NONE, Method: PREINCUBATION); “inactive; negative” (Test System: E. COLI, Strain/Indicator: WP2 UVRA, Metabolic Activation: NONE, Method: PREINCUBATION).
